Source: ChEMBL document CHEMBL1143353, “Pyrazolo[1,5-a]-1,3,5-triazine as a purine bioisostere: access to potent cyclin-dependent kinase inhibitor (R)-roscovitine analogue” (J Med Chem, 2009)

Experiments:
cells [1] = settings: Homo sapiens, HL-60, 72 h
Description: Antiproliferative activity against human HL60(TB) cells after 72 hrs by ViaLight assay

SNB-19 = assay: cells; settings: Homo sapiens, SNB-19, 72 h
Description: Antiproliferative activity against human SNB19 cells after 72 hrs by ViaLight assay

HOP-62 = assay: cells; settings: Homo sapiens, HOP-62, 72 h
Description: Antiproliferative activity against human HOP62 cells after 72 hrs by ViaLight assay

K562 = assay: cells; settings: Homo sapiens, K562, 72 h
Description: Antiproliferative activity against human K562 cells after 72 hrs by ViaLight assay

HCC 2998 = assay: cells; settings: Homo sapiens, HCC 2998, 72 h
Description: Antiproliferative activity against human HCC2998 cells after 72 hrs by ViaLight assay

EKVX = assay: cells; settings: Homo sapiens, 72 h
Description: Antiproliferative activity against human EKVX cells after 72 hrs by ViaLight assay

NCI-H226 = assay: cells; settings: Homo sapiens, NCI-H226, 72 h
Description: Antiproliferative activity against human NCI-H226 cells after 72 hrs by ViaLight assay

NCI-H522 = assay: cells; settings: Homo sapiens, NCI-H522, 72 h
Description: Antiproliferative activity against human NCI-H522 cells after 72 hrs by ViaLight assay

KM12 = assay: cells; settings: Homo sapiens, KM12, 72 h
Description: Antiproliferative activity against human KM12 cells after 72 hrs by ViaLight assay

MDA-MB-468 = assay: cells; settings: Homo sapiens, MDA-MB-468, 72 h, read-out: pGI50 (converted)
Description: Antiproliferative activity against human MDA-MB-468 cells after 72 hrs by ViaLight assay

786-0 = assay: cells; settings: Homo sapiens, 786-0, 72 h
Description: Antiproliferative activity against human 786-0 cells after 72 hrs by ViaLight assay

HEK293 = assay: Antiproliferative activity against human HEK293 cells after 48 hrs by MTS reduction assay; assay type: cell-based; settings: HEK293, 48 h
DU-145 = assay: cells; settings: Homo sapiens, DU-145, 72 h
Description: Antiproliferative activity against human DU145 cells after 72 hrs by ViaLight assay

NCI-H460 = assay: cells; settings: Homo sapiens, NCI-H460, 72 h
Description: Antiproliferative activity against human NCI-H460 cells after 72 hrs by ViaLight assay

HT-29 = assay: cells; settings: Homo sapiens, HT-29, 72 h
Description: Antiproliferative activity against human HT29 cells after 72 hrs by ViaLight assay

NCI-H322M = assay: cells; settings: Homo sapiens, 72 h
Description: Antiproliferative activity against human NCI-H322M cells after 72 hrs by ViaLight assay

CAKI-1 = assay: cells; settings: Homo sapiens, CAKI-1, 72 h
Description: Antiproliferative activity against human Caki1 cells after 72 hrs by ViaLight assay

SF-268 = assay: cells; settings: Homo sapiens, SF-268, 72 h
Description: Antiproliferative activity against human SF268 cells after 72 hrs by ViaLight assay

cells [2] = settings: Homo sapiens, Hs-578T, 72 h
Description: Antiproliferative activity against human Hs 578T cells after 72 hrs by ViaLight assay

OVCAR-3 = assay: cells; settings: Homo sapiens, OVCAR-3, 72 h
Description: Antiproliferative activity against human OVCAR-3 cells after 72 hrs by ViaLight assay

LOX IMVI = assay: cells; settings: Homo sapiens, 72 h
Description: Antiproliferative activity against human LOXIMVI cells after 72 hrs by ViaLight assay

MDA-MB-435 = assay: cells; settings: Homo sapiens, MDA-MB-435, 72 h
Description: Antiproliferative activity against human MDA-MB-435 cells after 72 hrs by ViaLight assay

A498 = assay: cells; settings: Homo sapiens, A498, 72 h
Description: Antiproliferative activity against human A498 cells after 72 hrs by ViaLight assay

ACHN = assay: cells; settings: Homo sapiens, 72 h
Description: Antiproliferative activity against human ACHN cells after 72 hrs by ViaLight assay

MOLT-4 = assay: cells; settings: Homo sapiens, MOLT-4, 72 h
Description: Antiproliferative activity against human MOLT4 cells after 72 hrs by ViaLight assay

HOP-92 = assay: cells; settings: Homo sapiens, HOP-92, 72 h
Description: Antiproliferative activity against human HOP92 cells after 72 hrs by ViaLight assay

CC[C@H](CO)Nc1nc(NCc2ccccc2)c2ncn(C(C)C)c2n1 [SELICICLIB]
50.1 µM: GI50 (K562) | GI50 (K562; read-out: pGI50 (converted)) | TGI (EKVX) | TGI (EKVX; read-out: pTGI) | TGI (LOX IMVI; read-out: pTGI) | TGI (MDA-MB-435) | GI50 (A498) | GI50 (ACHN; read-out: pGI50 (converted)) | GI50 (HOP-92) | GI50 (HOP-92; read-out: pGI50 (converted))
25.1 µM: GI50 (HOP-62) | GI50 (HOP-62; read-out: pGI50 (converted)) | GI50 (MDA-MB-468) | GI50 (786-0) | GI50 (NCI-H460) | GI50 (NCI-H460; read-out: pGI50 (converted)) | GI50 (A498; read-out: pGI50 (converted)) | GI50 (MOLT-4) | GI50 (MOLT-4; read-out: pGI50 (converted))
15.8 µM: GI50 (NCI-H522) | GI50 (NCI-H522; read-out: pGI50 (converted)) | GI50 (DU-145)
12.8 µM: GI50 (cells [2])
5.01 µM: GI50 (KM12) | GI50 (KM12; read-out: pGI50 (converted))
63.1 µM: TGI (NCI-H522) | TGI (NCI-H522; read-out: pTGI) | TGI (KM12) | TGI (KM12; read-out: pTGI)
6.3 µM: GI50 (CAKI-1)
48.9 µM: IC50 (HEK293)
19.9 µM: GI50 (cells [1]) | GI50 (EKVX) | GI50 (NCI-H226) | GI50 (HT-29) | GI50 (SF-268)
20 µM: GI50 (cells [1]; read-out: pGI50 (converted)) | GI50 (EKVX; read-out: pGI50 (converted)) | GI50 (NCI-H226; read-out: pGI50 (converted)) | GI50 (DU-145; read-out: pGI50 (converted)) | GI50 (HT-29; read-out: pGI50 (converted)) | GI50 (SF-268; read-out: pGI50 (converted)) | GI50 (LOX IMVI; read-out: pGI50 (converted))
12.6 µM: GI50 (SNB-19; read-out: pGI50 (converted)) | GI50 (CAKI-1; read-out: pGI50 (converted)) | TGI (cells [2]) | GI50 (OVCAR-3) | GI50 (OVCAR-3; read-out: pGI50 (converted)) | GI50 (LOX IMVI) | GI50 (MDA-MB-435) | GI50 (ACHN)
31.6 µM: TGI (SNB-19; read-out: pTGI) | GI50 (HCC 2998) | GI50 (HCC 2998; read-out: pGI50 (converted)) | GI50 (NCI-H322M) | GI50 (NCI-H322M; read-out: pGI50 (converted))
